Experimental data from US9828379B2 (priority 2013, dated 2017).

How the values were obtained:
ABHD6 [1] = molecular target: T1, ABHD6 (Mus musculus, UniProt Q8R2Y0); assay: biochemical; settings: in vitro competitive ABPP
T1 sequence (Q8R2Y0 1-336): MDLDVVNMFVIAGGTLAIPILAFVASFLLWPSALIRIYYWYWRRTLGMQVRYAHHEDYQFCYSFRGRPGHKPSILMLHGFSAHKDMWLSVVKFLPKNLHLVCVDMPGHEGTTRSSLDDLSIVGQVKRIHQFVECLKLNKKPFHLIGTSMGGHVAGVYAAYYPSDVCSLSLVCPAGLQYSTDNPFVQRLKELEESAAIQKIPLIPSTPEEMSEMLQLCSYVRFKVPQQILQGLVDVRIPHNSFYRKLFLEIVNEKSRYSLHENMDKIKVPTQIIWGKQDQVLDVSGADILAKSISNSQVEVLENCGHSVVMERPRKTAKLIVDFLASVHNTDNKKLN

FAAH [2] = molecular target: T2, FAAH (Mus musculus, UniProt O08914); assay: biochemical; settings: in vitro competitive ABPP
T2 sequence (O08914 1-579): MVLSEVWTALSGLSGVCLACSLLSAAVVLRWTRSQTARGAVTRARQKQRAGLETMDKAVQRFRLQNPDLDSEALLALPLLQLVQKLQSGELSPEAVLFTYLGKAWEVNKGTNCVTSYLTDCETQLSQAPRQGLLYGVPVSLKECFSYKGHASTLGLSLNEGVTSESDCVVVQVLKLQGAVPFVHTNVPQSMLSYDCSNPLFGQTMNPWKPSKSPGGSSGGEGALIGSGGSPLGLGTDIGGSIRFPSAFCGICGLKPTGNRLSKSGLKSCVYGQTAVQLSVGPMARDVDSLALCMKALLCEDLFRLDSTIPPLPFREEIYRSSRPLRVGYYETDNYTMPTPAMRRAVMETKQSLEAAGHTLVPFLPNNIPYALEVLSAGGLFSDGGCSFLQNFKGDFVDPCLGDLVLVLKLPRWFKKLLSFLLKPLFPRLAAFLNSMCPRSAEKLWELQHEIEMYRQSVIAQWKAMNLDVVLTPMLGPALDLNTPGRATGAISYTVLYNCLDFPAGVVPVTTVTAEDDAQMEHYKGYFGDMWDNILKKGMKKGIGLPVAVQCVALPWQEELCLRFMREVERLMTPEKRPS

MAGL [3] = molecular target: T3, MAGL (Mus musculus, UniProt O35678); assay: biochemical; settings: mouse; in vitro competitive ABPP; read-out: Mouse (IC50 value, nM) MAGL
T3 sequence (O35678 1-303): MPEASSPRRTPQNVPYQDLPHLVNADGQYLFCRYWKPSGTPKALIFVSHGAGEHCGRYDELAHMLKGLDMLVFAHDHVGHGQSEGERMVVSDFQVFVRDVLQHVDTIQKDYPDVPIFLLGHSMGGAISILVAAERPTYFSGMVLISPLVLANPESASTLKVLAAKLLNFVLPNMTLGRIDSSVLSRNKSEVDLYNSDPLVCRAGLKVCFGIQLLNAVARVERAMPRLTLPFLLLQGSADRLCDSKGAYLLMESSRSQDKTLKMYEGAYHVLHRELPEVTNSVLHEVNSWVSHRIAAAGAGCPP

ABHD6 [4] = molecular target: T1, ABHD6; assay: In vitro competitive activity-based protein profiling (Table 2, % inhibition at 1 μM); type: biochemical; settings: read-out: % Inhibition at 1 μM ABHD6
FAAH [5] = molecular target: T2, FAAH; assay: as above; type: biochemical; settings: read-out: % Inhibition at 1 μM FAAH
MAGL [6] = molecular target: T3, MAGL; assay: as above; type: biochemical; settings: read-out: % Inhibition at 1 μM MAGL
Protocol: After 30 min, FP—Rh (1.0 μL, 50 μM in DMSO) was added and the mixture was incubated for another 30 min at 37° C. Reactions were quenched with SDS loading buffer (50 μL-4×) and run on SDS-PAGE.
Cell lysates were diluted with mock proteomes for use in competitive ABPP experiments.

| Compound | IC50 (ABHD6 [1]) [nM] | IC50 (FAAH [2]) [nM] | IC50 (MAGL [3]) [nM] | inhibition at 1 µM (ABHD6 [4]) [%] | inhibition at 1 µM (FAAH [5]) [%] | inhibition at 1 µM (MAGL [6]) [%] |
| --- | --- | --- | --- | --- | --- | --- |
| O=C(OC(C(F)(F)F)C(F)(F)F)N1CC2CN(Cc3cc(CN4CCOCC4)cc(OC(F)(F)F)c3)CC2C1 (stereo not drawn) [Example 183, 1,1,1,3,3,3-hexafluoropropan-2-yl 5-(3-(morpholinomethyl)-5-(trifluoromethoxy)benzyl)hexahydropyrrolo[3,4-c]pyrrole-2(1H)-carboxylate] | 1000 to 10000 | 1000 to 10000 | 100 to 1000 | < 25 | < 25 | > 75 |
| Cc1cccc(CN2CC3CN(C(=O)OC(C(F)(F)F)C(F)(F)F)CC3C2)c1N1CCN(C)CC1 (stereo not drawn) [Example 147, 1,1,1,3,3,3-hexafluoropropan-2-yl 5-[[3-methyl-2-(4-methylpiperazin-1-yl)phenyl]methyl]-octahydropyrrolo[3,4-c]pyrrole-2-carboxylate] | > 10000 | > 10000 | 100 to 1000 | < 25 | < 25 | > 75 |
| CC1COCCN1c1ccc(CN2CC3CN(C(=O)ON4C(=O)CCC4=O)CC3C2)c(Cl)c1 (stereo not drawn) [Example 102, 2,5-Dioxopyrrolidin-1-yl 5-[[2-chloro-4-(3-methylmorpholin-4-yl)phenyl]methyl]-octahydropyrrolo[3,4-c]pyrrole-2-carboxylate] | 1000 to 10000 | 1000 to 10000 | 100 to 1000 | < 25 | 25 to 75 | 25 to 75 |
| CC1COCCN1c1cc(F)ccc1CN1CC2CN(C(=O)OC(C(F)(F)F)C(F)(F)F)CC2C1 (stereo not drawn) [Example 16, 1,1,1,3,3,3-Hexafluoropropan-2-yl 5-[[4-fluoro-2-(3-methylmorpholin-4-yl)phenyl]methyl]-octahydropyrrolo[3,4-c]pyrrole-2-carboxylate] | 1000 to 10000 | 1000 to 10000 | < 100 | < 25 | < 25 | > 75 |
| O=C(ON1C(=O)CCC1=O)N1CC2CN(Cc3ccc(N4CCOCC4)cc3OC(F)(F)F)CC2C1 (stereo not drawn) [Example 86, 2,5-Dioxopyrrolidin-1-yl 5-[[4-(morpholin-4-yl)-2-(trifluoromethoxy)phenyl]methyl]-octahydropyrrolo[3,4-c]pyrrole-2-carboxylate] | 1000 to 10000 | 1000 to 10000 | 100 to 1000 | < 25 | 25 to 75 | > 75 |
| CCn1cc(CN2CC3CN(C(=O)OC(C(F)(F)F)C(F)(F)F)CC3C2)c(C(=O)NC2CC2)n1 (stereo not drawn) [Example 77, 1,1,1,3,3,3-Hexafluoropropan-2-yl 5-((3-(cyclopropylcarbamoyl)-1-ethyl-1H-pyrazol-4-yl)methyl)hexahydropyrrolo[3,4-c]pyrrole-2(1H)-carboxylate] | 1000 to 10000 | > 10000 | 100 to 1000 | < 25 | < 25 | > 75 |
| CC1COCCN1c1ccc(CN2CC3CN(C(=O)OC(C(F)(F)F)C(F)(F)F)CC3C2)c(Cl)c1 (stereo not drawn) [Example 27, 1,1,1,3,3,3-Hexafluoropropan-2-yl 5-[[2-chloro-4-(3-methylmorpholin-4-yl)phenyl]methyl]-octahydropyrrolo[3,4-c]pyrrole-2-carboxylate] | 1000 to 10000 | 1000 to 10000 | < 100 | < 25 | 25 to 75 | > 75 |
| CC1COCCN1c1cc(Cl)ccc1CN1CC2CN(C(=O)OC(C(F)(F)F)C(F)(F)F)CC2C1 (stereo not drawn) [Example 20, 1,1,1,3,3,3-Hexafluoropropan-2-yl 5-[[4-chloro-2-(3-methylmorpholin-4-yl)phenyl]methyl]-octahydropyrrolo[3,4-c]pyrrole-2-carboxylate] | 1000 to 10000 | 1000 to 10000 | < 100 | < 25 | < 25 | > 75 |
| CCN1CCN(c2cccc(CN3CC4CN(C(=O)OC(C(F)(F)F)C(F)(F)F)CC4C3)c2C)CC1 (stereo not drawn) [Example 155, 1,1,1,3,3,3-hexafluoropropan-2-yl 5-[[3-(4-ethylpiperazin-1-yl)-2-methylphenyl]methyl]-octahydropyrrolo[3,4-c]pyrrole-2-carboxylate] | 1000 to 10000 | 1000 to 10000 | 100 to 1000 | 25 to 75 | 25 to 75 | > 75 |
| O=C(OC(C(F)(F)F)C(F)(F)F)N1CC2CN(Cc3cccc(N4CCOCC4)c3Cl)CC2C1 (stereo not drawn) [Example 49, 1,1,1,3,3,3-Hexafluoropropan-2-yl 5-[[2-chloro-3-(morpholin-4-yl)phenyl]methyl]-octahydropyrrolo[3,4-c]pyrrole-2-carboxylate] | 1000 to 10000 | 1000 to 10000 | < 100 | < 25 | 25 to 75 | > 75 |
| Cc1c(CN2CC3CN(C(=O)OC(C(F)(F)F)C(F)(F)F)CC3C2)cccc1N1CCC(F)(F)CC1 (stereo not drawn) [Example 153, 1,1,1,3,3,3-hexafluoropropan-2-yl 5-[[3-(4,4-difluoropiperidin-1-yl)-2-methylphenyl]methyl]-octahydropyrrolo[3,4-c]pyrrole-2-carboxylate] | > 10000 | 1000 to 10000 | < 100 | < 25 | 25 to 75 | > 75 |
| O=C(OC(C(F)(F)F)C(F)(F)F)N1CC2CN(Cc3ccc(Cl)cc3N3CCn4ccnc4C3)CC2C1 (stereo not drawn) [Example 33, 1,1,1,3,3,3-Hexafluoropropan-2-yl 5-[(4-chloro-2-[5H,6H,7H,8H-imidazo[1,2-a]pyrazin-7-yl]phenyl)methyl]-octahydropyrrolo[3,4-c]pyrrole-2-carboxylate] | 1000 to 10000 | 1000 to 10000 | < 100 | 25 to 75 | 25 to 75 | > 75 |
| O=C(ON1C(=O)CCC1=O)N1CC2CN(Cc3ccccc3-c3ccccc3)CC2C1 (stereo not drawn) [Example 87, 2,5-Dioxopyrrolidin-1-yl-5-[(2-phenylphenyl)methyl]-octahydropyrrolo[3,4-c]pyrrole-2-carboxylate] | 1000 to 10000 | 100 to 1000 | 100 to 1000 | 25 to 75 | 25 to 75 | > 75 |
| CC(C)(C)c1cc(CN2CC3CN(C(=O)OC(C(F)(F)F)C(F)(F)F)CC3C2)n(C2CCOCC2)n1 (stereo not drawn) [Example 157, 1,1,1,3,3,3-hexafluoropropan-2-yl 5-[[3-tert-butyl-1-(oxan-4-yl)-1H-pyrazol-5-yl]methyl]-octahydropyrrolo[3,4-c]pyrrole-2-carboxylate] | 1000 to 10000 | > 10000 | 100 to 1000 | < 25 | < 25 | > 75 |
| O=C(OC(C(F)(F)F)C(F)(F)F)N1CC2CN(Cc3cc(CN4CCCCC4)cc(OC(F)(F)F)c3)CC2C1 (stereo not drawn) [Example 184, 1,1,1,3,3,3-hexafluoropropan-2-yl 5-(3-(piperidin-1-ylmethyl)-5-(trifluoromethoxy)benzyl)hexahydropyrrolo[3,4-c]pyrrole-2(1H)-carboxylate] | 1000 to 10000 | 1000 to 10000 | 100 to 1000 | < 25 | < 25 | > 75 |
| Cc1cc(CN2CC3CN(C(=O)OC(C(F)(F)F)C(F)(F)F)CC3C2)n(C(C)C)n1 (stereo not drawn) [Example 59, 1,1,1,3,3,3-Hexafluoropropan-2-yl 5-[[3-methyl-1-(propan-2-yl)-1H-pyrazol-5-yl]methyl]-octahydropyrrolo[3,4-c]pyrrole-2-carboxylate] | 1000 to 10000 | 1000 to 10000 | 100 to 1000 | 25 to 75 | 25 to 75 | > 75 |
